# Experiments:
# [1] = biological target: T1, homomeric (CNGA1) rod CNG channels (Bos taurus, UniProt Q00194); conditions: cited from earlier work
# T1 sequence (Q00194 1-690): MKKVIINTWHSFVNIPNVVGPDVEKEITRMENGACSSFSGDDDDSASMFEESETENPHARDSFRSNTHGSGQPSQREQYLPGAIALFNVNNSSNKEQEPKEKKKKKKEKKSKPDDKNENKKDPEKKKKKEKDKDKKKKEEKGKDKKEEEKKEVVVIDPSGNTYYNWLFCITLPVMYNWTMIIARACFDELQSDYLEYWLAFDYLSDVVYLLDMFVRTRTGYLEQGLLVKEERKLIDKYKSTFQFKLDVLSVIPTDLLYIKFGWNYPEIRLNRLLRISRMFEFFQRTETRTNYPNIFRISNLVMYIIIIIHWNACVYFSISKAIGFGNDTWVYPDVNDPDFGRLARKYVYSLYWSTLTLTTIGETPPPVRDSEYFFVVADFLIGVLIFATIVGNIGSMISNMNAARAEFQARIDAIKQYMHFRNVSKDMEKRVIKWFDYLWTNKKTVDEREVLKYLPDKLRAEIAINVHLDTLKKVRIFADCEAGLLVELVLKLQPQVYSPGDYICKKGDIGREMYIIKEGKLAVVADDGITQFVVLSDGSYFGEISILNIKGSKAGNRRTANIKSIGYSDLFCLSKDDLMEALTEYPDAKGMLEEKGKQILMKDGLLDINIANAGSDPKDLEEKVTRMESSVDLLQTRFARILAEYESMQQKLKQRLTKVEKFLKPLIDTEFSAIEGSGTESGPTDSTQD
# [2] = biological target: heteromeric (CNGA1 + CNGB1) rod CNG channels (Bos taurus, UniProt Q00194+Q28181); conditions: ref Chen et al., 1993; cited from earlier work
# Sequence of heteromeric (CNGA1 + CNGB1) rod CNG channels (Q28181 whole entry, one chain of several): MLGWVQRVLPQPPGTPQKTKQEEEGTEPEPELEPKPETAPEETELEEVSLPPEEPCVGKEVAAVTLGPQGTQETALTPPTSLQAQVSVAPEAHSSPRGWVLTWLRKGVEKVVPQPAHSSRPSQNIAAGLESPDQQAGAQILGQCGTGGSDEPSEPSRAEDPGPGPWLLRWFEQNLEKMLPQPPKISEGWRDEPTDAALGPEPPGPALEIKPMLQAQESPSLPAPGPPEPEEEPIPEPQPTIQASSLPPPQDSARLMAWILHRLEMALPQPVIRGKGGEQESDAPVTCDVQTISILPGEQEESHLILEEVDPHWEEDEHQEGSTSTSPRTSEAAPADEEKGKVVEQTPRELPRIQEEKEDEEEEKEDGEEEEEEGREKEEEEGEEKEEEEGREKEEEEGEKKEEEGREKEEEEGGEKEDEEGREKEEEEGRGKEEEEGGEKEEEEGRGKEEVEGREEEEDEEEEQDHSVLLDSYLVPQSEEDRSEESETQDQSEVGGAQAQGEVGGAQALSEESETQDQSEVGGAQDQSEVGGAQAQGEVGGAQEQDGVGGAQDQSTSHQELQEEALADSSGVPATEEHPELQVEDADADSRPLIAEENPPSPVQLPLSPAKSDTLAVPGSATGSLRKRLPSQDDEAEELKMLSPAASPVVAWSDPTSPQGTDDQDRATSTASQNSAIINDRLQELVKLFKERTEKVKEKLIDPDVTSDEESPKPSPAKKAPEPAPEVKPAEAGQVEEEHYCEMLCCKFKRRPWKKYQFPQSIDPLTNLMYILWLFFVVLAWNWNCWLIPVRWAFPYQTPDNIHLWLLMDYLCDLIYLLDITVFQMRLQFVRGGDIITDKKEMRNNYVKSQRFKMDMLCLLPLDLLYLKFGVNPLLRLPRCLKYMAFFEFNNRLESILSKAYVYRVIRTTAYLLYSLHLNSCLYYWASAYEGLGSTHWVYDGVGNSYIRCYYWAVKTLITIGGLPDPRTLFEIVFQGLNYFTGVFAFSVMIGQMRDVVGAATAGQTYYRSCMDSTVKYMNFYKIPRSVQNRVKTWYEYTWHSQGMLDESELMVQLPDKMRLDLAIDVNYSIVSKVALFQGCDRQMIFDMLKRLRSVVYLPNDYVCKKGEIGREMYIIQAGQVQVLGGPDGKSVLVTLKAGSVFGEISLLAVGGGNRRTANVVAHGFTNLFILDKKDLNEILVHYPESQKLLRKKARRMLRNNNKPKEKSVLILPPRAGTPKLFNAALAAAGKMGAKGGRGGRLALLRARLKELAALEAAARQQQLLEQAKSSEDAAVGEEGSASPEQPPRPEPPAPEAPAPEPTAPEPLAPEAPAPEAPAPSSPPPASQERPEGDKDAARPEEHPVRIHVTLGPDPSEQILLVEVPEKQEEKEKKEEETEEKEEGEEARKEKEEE
# [3] = biological target: T1, homomeric (CNGA1) rod CNG channels; format: cell-based, bovine
# [4] = model fit of cGMP dose–response without ATR
compound,measurement,setting,value
COc1ccc([C@H]2Sc3ccccc3N(CCN(C)C)C(=O)[C@H]2OC(C)=O)cc1 (relative stereo) [l-cis-diltiazem],effect on homomeric channels,"[1]; ref Chen et al., 1993",little effect
same,block of heteromeric channels,[2],sensitively blocks
CC1=C(/C=C/C(C)=C/C=C/C(C)=C/CO)C(C)(C)CCC1 [all-trans-retinol],inhibition of the rod CNG channel,"[1]; ref Dean et al., 2002",inhibited quite well
Nc1nc2c(ncn2[C@@H]2O[C@@H]3COP(=O)(O)O[C@H]3[C@H]2O)c(=O)[nH]1 [cGMP],open probability predicted by KcN and L,"[3]; 2 mM cGMP, no ATR",0.95
same,"KcN, association constant for cyclic nucleotide binding",[3]; [4],"7,200 M^−1"
same,"L, equilibrium constant for the allosteric opening transition of the fully liganded channel",[3]; [4],19.8
